{"source": "ChEMBL document CHEMBL5241090", "about": "“A comprehensive overview of β-carbolines and its derivatives as anticancer agents” (Eur J Med Chem, 2021)", "key": {"[1]": {"target": "Serine/threonine-protein kinase PLK1 (Homo sapiens, UniProt P53350)", "sequence (P53350 whole entry)": "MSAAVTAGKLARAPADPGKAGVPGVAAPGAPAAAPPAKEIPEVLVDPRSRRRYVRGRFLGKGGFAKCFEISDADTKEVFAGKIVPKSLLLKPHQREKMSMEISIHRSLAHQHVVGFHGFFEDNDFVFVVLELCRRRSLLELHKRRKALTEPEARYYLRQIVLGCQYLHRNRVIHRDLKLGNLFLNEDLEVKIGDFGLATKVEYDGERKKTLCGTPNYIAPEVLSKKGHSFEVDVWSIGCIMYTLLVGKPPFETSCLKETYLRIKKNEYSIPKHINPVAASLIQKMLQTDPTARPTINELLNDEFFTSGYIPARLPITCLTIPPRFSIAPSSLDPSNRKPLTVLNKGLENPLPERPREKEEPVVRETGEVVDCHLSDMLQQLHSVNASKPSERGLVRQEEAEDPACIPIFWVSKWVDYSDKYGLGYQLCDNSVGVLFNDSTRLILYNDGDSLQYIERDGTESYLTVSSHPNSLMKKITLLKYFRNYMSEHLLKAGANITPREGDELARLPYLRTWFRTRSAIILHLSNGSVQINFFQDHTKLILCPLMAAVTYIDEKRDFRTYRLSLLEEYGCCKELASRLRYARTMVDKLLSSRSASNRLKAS", "assay": "Inhibition of PLK1 (unknown origin)"}, "[2]": {"test_system": "MOLT-4F", "assay": "Cytotoxicity against human MOLT-4F cells", "assay_type": "functional, cell-based"}, "[3]": {"test_system": "MT4", "assay": "Cytotoxicity against human MT4 cells", "assay_type": "functional, cell-based"}, "[4]": {"test_system": "L1210", "assay": "Cytotoxicity against mouse L1210 cells", "assay_type": "functional, cell-based"}, "[5]": {"test_system": "THP-1", "assay": "Cytotoxicity against human THP-1 cells", "assay_type": "functional, cell-based"}, "[6]": {"test_system": "HCT-116", "assay": "Cytotoxicity against human HCT-116 cells", "assay_type": "functional, cell-based"}, "[7]": {"test_system": "BT-474", "assay": "Cytotoxicity against human BT-474 cells", "assay_type": "functional, cell-based"}, "[8]": {"test_system": "HL-60", "assay": "Cytotoxicity against human HL-60 cells", "assay_type": "functional, cell-based", "details": "Homo sapiens, HL-60; read-out: IC50"}, "[9]": {"test_system": "A549", "assay": "Cytotoxicity against human A549 cells", "assay_type": "functional, cell-based"}, "[10]": {"test_system": "NCI-H460", "assay": "Cytotoxicity against human NCI-H460 cells", "assay_type": "functional, cell-based"}, "[11]": {"test_system": "MOLT-4", "assay": "Cytotoxicity against human MOLT-4 cells", "assay_type": "functional, cell-based"}, "[12]": {"test_system": "RAW264.7", "assay": "Cytotoxicity against mouse RAW264.7 cells", "assay_type": "functional, cell-based"}, "[13]": {"target": "Serine/threonine-protein kinase haspin (Homo sapiens, UniProt Q8TF76)", "sequence (Q8TF76 whole entry)": "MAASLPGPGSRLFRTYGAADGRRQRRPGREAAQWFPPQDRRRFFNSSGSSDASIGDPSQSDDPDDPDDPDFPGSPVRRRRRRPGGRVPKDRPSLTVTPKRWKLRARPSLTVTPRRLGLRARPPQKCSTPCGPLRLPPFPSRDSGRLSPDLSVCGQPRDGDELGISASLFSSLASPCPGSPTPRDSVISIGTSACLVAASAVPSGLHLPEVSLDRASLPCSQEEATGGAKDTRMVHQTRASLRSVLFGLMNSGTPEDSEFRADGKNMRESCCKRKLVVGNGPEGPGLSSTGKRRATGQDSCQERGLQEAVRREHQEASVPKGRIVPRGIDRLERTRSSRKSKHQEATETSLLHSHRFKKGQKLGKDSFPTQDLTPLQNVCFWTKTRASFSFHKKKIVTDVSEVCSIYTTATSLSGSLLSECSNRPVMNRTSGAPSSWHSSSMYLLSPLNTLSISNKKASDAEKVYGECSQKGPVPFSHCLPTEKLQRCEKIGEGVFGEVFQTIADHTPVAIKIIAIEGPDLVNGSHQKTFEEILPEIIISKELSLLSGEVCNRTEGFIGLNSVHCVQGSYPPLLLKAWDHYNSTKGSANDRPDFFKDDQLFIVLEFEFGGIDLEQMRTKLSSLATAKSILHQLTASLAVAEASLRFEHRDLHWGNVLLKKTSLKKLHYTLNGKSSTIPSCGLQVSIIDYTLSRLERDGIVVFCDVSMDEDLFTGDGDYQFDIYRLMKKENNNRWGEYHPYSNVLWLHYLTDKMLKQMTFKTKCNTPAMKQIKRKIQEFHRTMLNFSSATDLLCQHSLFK", "assay": "Inhibition of HASPIN (unknown origin)"}, "[14]": {"target": "Cyclin-dependent kinase 2/cyclin A (Homo sapiens, UniProt P24941)", "assay": "Inhibition of CDK2/Cyclin A (unknown origin)", "assay_type": "protein-complex assay"}}, "note": "pIC50: −log10 of the molar value."}
{"compound": "COc1ccc2c3cc[n+](CCCc4ccccc4)c(C)c3n(Cc3cccc(Cl)c3)c2c1", "values": [{"measurement": "pIC50", "setting": "[1]", "value": 6.05}]}
{"compound": "COc1ccc2[nH]c3c(c2c1)CCN1OCSC[C@@H](N)C31", "note": "(some centres undefined)", "values": [{"measurement": "IC50", "setting": "[2]", "value": 6.2, "unit": "ng/mL"}, {"measurement": "IC50", "setting": "[3]", "value": 5, "unit": "ng/mL"}, {"measurement": "IC50", "setting": "[4]", "value": 5, "unit": "ng/mL"}]}
{"compound": "COc1ccc(-c2nc(C(=O)Nc3nc4ccc([N+](=O)[O-])cc4s3)cc3c2[nH]c2ccccc23)cc1", "values": [{"measurement": "pIC50", "setting": "[5]", "value": 5.84}, {"measurement": "pIC50", "setting": "[6]", "value": 5.84}, {"measurement": "pIC50", "setting": "[7]", "value": 5.84}, {"measurement": "pIC50", "setting": "[8]", "value": 5.84}, {"measurement": "pIC50", "setting": "[9]", "value": 5.84}, {"measurement": "pIC50", "setting": "[10]", "value": 5.84}, {"measurement": "pIC50", "setting": "[11]", "value": 5.84}]}
{"compound": "CN1CCN(C(=O)[C@H]2Cc3c([nH]c4ccccc34)CN2Cc2ccc3ccccc3c2Br)CC1", "values": [{"measurement": "pIC50", "setting": "[12]", "value": 4.75}]}
{"compound": "Cc1nccc2c1[nH]c1cc(O)ccc12", "values": [{"measurement": "pIC50", "setting": "[13]", "value": 6.11}]}
{"compound": "CCCC[n+]1ccc2c3ccccc3n(Cc3ccccc3)c2c1-c1ccccc1Cl", "values": [{"measurement": "pIC50", "setting": "[14]", "value": 4.57}]}
